Assay results: patent US12595269B2, “Morpholine-like monoamine releasers” (Solvonis Therapeutics Ireland Holdings Limited, priority 2022, dated 2026)
Like-named read-outs stand apart in the source and are kept apart here.

Molecular target: T1, CYP2D6 (Homo sapiens, UniProt P10635)
T1 construct: host or cells: recombinant microsomes
Assay: CYP450 inhibition, fluorescent probe, recombinant microsomes: CYP2D6
Format: in vitro ADME
Method: Methods and Procedure: The study was performed in agreement with previously described procedures to assure data integrity and adherence to GLP standards. Briefly, recombinant human CYP450 isoenzymes were used to metabolize pro-fluorescent probe substrates to fluorescent products. IC50 values determined from the effect of test compounds on the metabolism of these probe substrates were then used to determine inhibitory potency against CYP450 isoforms.
The test system was based on a three-step procedure with a “mix and read” format, where PGP-432,TI reaction and reading were performed at 37° C. […] Fluorescence was measured in kinetic mode (1 read/minutes for 10 minutes), and the fluorescence rate was calculated. […]
Microsomes were added to the buffer prior to the substrate addition. […] For fluorescence measurement, 10 μL/well of the test compounds were transferred from the compound plate to the assay plate using Biomek FX and the appropriate protocol. […]
10 μL/well of the cofactor was then added to the assay plate using the Multidrop before placing the assay plate in the plate reader EnVision to measure fluorescence. […]
Next, 10 μL/well from the compound plate was added and incubated for 10 minutes at 37° C. on a plate shaker, while a mixture of Vivid Substrate and Vivid NADP+ in Vivid CYP450 Reaction Buffer was prepared. […] Regarding data analysis, the inhibition effect is expressed as a percentage. […]

T1 sequence (P10635 whole entry): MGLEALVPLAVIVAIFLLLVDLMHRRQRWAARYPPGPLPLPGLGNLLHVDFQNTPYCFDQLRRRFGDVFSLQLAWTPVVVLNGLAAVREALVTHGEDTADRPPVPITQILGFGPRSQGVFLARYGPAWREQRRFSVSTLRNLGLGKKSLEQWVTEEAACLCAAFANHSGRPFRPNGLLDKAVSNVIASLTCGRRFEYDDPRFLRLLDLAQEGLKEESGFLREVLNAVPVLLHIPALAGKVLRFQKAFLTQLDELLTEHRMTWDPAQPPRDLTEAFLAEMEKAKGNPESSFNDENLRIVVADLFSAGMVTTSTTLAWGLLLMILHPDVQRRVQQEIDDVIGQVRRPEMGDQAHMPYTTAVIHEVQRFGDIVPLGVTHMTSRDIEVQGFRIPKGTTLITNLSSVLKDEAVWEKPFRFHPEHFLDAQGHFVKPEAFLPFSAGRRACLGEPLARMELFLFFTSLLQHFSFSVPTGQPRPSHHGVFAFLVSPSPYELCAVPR

SMILES | IC50 (recombinant human CYP2D6, read-out: CYP450 Inhibition (IC50), CYP2D6) [nM] | IC50 [nM]
Clc1ccc(C23CNC(CO2)C3)cc1Cl (centres unmarked) [522A, 1-(3,4-dichlorophenyl)-2-oxa-5-azabicyclo[2.2.1]heptane] | 2870 | 
CNC(C)Cc1ccc2c(c1)OCO2 (centres unmarked) [MDMA, reference compound] |  | 1600
